# Biological target: T1, VCB and FAM-conjugated HIF1α-derived peptide interaction (Homo sapiens, UniProt P40337)
# T1 construct: human VHL (UniPort entry P40337, residues 1 -213); 6xHis followed by TEV site (N, cleaved yes); made in house; host or cells: E. coli One Shot BL21(DE3)
# Assay: Competitive fluorescence polarization (FP) assay, VCB / FAM-conjugated HIF1α-derived peptide
# Type: binding
# Conditions: 2 h incubation between VCB and compound; read-out: apparent IC50 (FP)
# Experimental: We next focused on developing a second generation covalent VHL binder with enhanced potency and occupancy.
# Figure 2 (A) Structure of VHL-SF2. […] (E) Competition pull-down assay from live cells between VHL-SF2-Biotin and VHL-SF2. HEK293T cells were pretreated with DMSO or varying concentrations of VHL-SF2 for 2 h at 37 °C. The cells were lysed and treated with DMSO or VHL-SF2-Biotin (50 μM) for 2 h at room temperature. A pull-down with streptavidin beads was conducted, after which the protein was resolved on SDS/PAGE. VHL and loading control GAPDH levels were visualized by Western blotting.
# Figure S3. (A) Gel-based VHL labelling of VHL-SF1-Biotin, and (B) VHL-SF2-Biotin. VCB protein was pre-treated with DMSO, VHL-SF1-Biotin or VHL-SF2-Biotin for 2 h at room temperature, after which protein was resolved on SDS -PAGE and visualised by Neutravidin […]
# Figure S4. Dose-response of VHL-SF1 following a 2 h pre-incubation in the presence of VCB and FAM-conjugated HIF1α-derived peptide, assessed by fluorescence polarization. Data […]
# Figure S5. (A) VCB was incubated with DMSO for 24 h and subjected to intact-protein LC-MS (VHL: 24784 Da). […]
# Fluorescence polarization assay protocol […]
# well plate and the plate was shaken for 1 min, before reading fluorescence polarization on a Perkin Elmer Envision 2101 plate reader (excitation 486 nm, emission 535 nm). […]
smiles,measurement,value
"Cc1cc([C@H](C(=O)N2C[C@H](S(=O)(=O)F)C[C@H]2C(=O)N[C@@H](CC(=O)OC(C)(C)C)c2ccc(-c3scnc3C)cc2)C(C)C)on1 [VHL-SF2, tert-Butyl (S)-3-((2S,4R)-4-(Fluorosulfonyl)-1-((R)-3-methyl-2-(3-methylisoxazol-5-yl)butanoyl)pyrr-olidine-2-carboxamido)-3-(4-(4-methylthiazol-5-yl)phenyl)propanoate]",IC50,35 µM

# — article PMC10982999, “Structure-Guided Design and Optimization of Covalent VHL-Targeted Sulfonyl Fluoride PROTACs” (Journal of Medicinal Chemistry, 2024)
